The text below walks through data of patent US7270820B2, “CD4+ T-lymphocyte-specific hepatitis C virus epitopes” (Immusystems GmbH, priority 2002, dated 2007).

This assay deals with fresh peripheral blood mononuclear cells (PBMC) / HCV-specific CD4+ T-lymphocytes. As to the kind of experiment: Lymphocyte proliferation assay (3H-thymidine incorporation) of PBMC stimulated with HCV peptides. The following applies: for IF (impact factor): peptide 10 μg/ml, 5 days, calculated from n1 (reactions with 3<SI<6), n2 (SI≧6) and m tests, m≧15. The format is cell-based, human (patients with acute hepatitis C). The text has this: To solve the task, a unique patient collective was identified, namely patients with acute hepatitis C who reach a lasting or at least temporary virus elimination in over 50% of cases. In order to test all possible CD4+ T-cell epitopes, the whole virus was covered with overlapping synthetic peptides from 15 to 20 amino acids long. A standardised lymphocyte proliferation assay was used as the test system. In order to determine both the degree of conservation between various virus sub-types and also the binding promiscuity as regards the relevant genetic background of the patients, a formula was defined based on the frequency of detection of an epitope and the strength of the immune reaction in question.
The stimulation index (SI) is normally calculated from the raw data of a proliferation assay and represents the multiplication factor of the measured sample in comparison with the control. An SI of 3 is regarded as significant.
A special patient collective was chosen and examined for HCV specific CD4+ T-cell epitopes relevant for the healing of the disease. The patient collective, namely patients with acute hepatitis C, is difficult to identify, since, on the one hand, they occur with a frequency of approx. 1:100,000 in the German population and, on the other hand, only T-lymphocytes were tested in the acute phase of the disease. This means a considerable limitation in the number of usable samples. Finally, within this patient collective, only patients were considered who were able to clear the virus spontaneously or to control it temporarily (this is only approx. 60% of the patients with acute hepatitis C), since only here has the immune system successfully taken action against the virus.
As the test system, the so-called “proliferation assay” was carried out according to the following protocol: After density gradient centrifugation on Ficoll gradients of heparinised blood, the fresh peripheral blood mononuclear cells (PBMC) were isolated and suspended in a culture medium (RPMI1640, Gibco). 50 μl of this cell suspension (concentration of 1×10^6 cells per ml) were placed on sterile 96-well culture plates. The cells were stimulated by the addition of the peptides. The final concentration of the peptides was 10 μg/ml. The cell culture plates were cultivated over 5 days at 37° C. and 5% CO2, then mixed with ^3H-thymidine and the incorporation of the radioactive ^3H was measured as a measure of the cell stimulation.
In our studies, only peptide reactions were regarded as significant whose stimulation index (SI) was greater than 3 (3× higher compared with the controls, or the irrelevant peptides).
The impact factor (IF) is based on a points system which not only uses the frequency of relevant reactions, i.e. stimulation index (SI) greater than 3, as normal, but also takes into account the strength of these reactions.
[formula] where • n1 is the sum of the reactions with 3<SI<6, • n2 is the sum of the reactions with SI≧6 and • m is the number of tests against the peptide in question, whereby m≧15.

Regarding “ARSLTPCTCGSSDLY (Hepatitis C virus) [EP002]”, the “IF (impact factor)” value is listed as 27.6.
On the same count and under the same terms, the figure for CPCQVPAPEFFTEVDGVRLH [EP011] is 23.3; for CSGSWLRDVWDWICTVLTDF [EP008] it is 23.3.
Still for that read-out and setting: the figure for DVVCCSMSYTWTGALITPCA [EP017] is 23.3; for EVTRVGDFHYVTGMTTDNVK [EP010] it is 21.9.
Still for that read-out and setting: the figure for FTEVDGVRLHRYAPACKPLL [EP012] is 28.1; for GAQITGHVKNGSMRIVGPKT [EP009] it is 23.3; for “GPRLGVRATRKTSER (Hepatitis C virus) [EP001]” it is 24.0.
With “MWKCLIRLKPTLHGP (Hepatitis C virus) [EP004]”, the “IF (impact factor)” value was 24.1.
In the case of PLLESWKDPDYVPPVVHGCP [EP016], the “IF (impact factor)” value is given as 26.7.
The same measure, in the same setting: the figure for “REVSVAAEILRKSRKFPPAM (Hepatitis C virus) [EP015]” is 25.0; for “SSDLYLVTRHADVIP (Hepatitis C virus) [EP003]” it is 23.2.
Turning to SSSASQLSAPSLKATCTTHH [EP014], the “IF (impact factor)” value is given as 23.3.
Consider THYVPESDAAARVTQILSSL [EP006], for which the “IF (impact factor)” value is 26.7.
In the case of TITQLLKRLHQWINEDCSTP [EP007], the “IF (impact factor)” value is 43.8. In addition, where the note is “of 16 independent tests”, the “n1, sum of the reactions with 3<SI<6” value is reported as 4 and the “n2, sum of the reactions with SI≧6” value came to 2. The sequence also showed an impact factor (worked example in text, m=16 tests) of 43.75.
Take TSMLTDPSHITAETAKRRLA [EP013]: the “IF (impact factor)” value was 26.7.
Still for that read-out and setting: next, “VLVDILAGYGAGVAG (Hepatitis C virus) [EP005]”: 24.1.
